Patent publication EP0830600B1, “FUNCTIONAL BIOASSAY FOR G-PROTEIN COUPLED RECEPTOR AGONISTS AND ANTAGONISTS” (Praecis Pharmaceuticals Incorporated, priority 1995, dated 1996)

Columns and labels:
[1] = biological target: T1, human β2-adrenergic receptor (Homo sapiens, UniProt P07550); test: Cell morphology (photomicroscopy) of β2-adrenergic receptor-expressing cell line; type: cell-based; settings: several days
T1 construct: expressed in transfected cells
Procedure: Several days later, cells were analyzed by photomicroscopy to determine the effect of treatment on cell morphology. […] Assessment of the agonist or antagonist properties of individual compounds or libraries of compounds can be achieved by, for example, microscopic observation of the cells, or alternatively, by video digitizing techniques to quantify cell shape changes and/or cell alignment changes.

[2] = system: untransfected CHO DUKX B 1 cells; test: MTT cell viability, control untransfected CHO cells; type: cell-based, Chinese Hamster; settings: carbachol or pirenzepine; 5 days; Figure 2A
[3] = system: untransfected CHO cells; test: Cell morphology, control untransfected CHO cells; type: cell-based, Chinese Hamster; settings: cells not expressing the recombinant β2-adrenergic receptor
Procedure: . Several days later, cells were analyzed by photomicroscopy to determine the effect of treatment on cell morphology. […]. Salbutamol induced both a change in cell shape (i.e., elongation of the cells) and an alignment of the cells with each other. […]. Assessment of the agonist or antagonist properties of individual compounds or libraries of compounds can be achieved by, for example, microscopic observation of the cells, or alternatively, by video digitizing techniques to quantify cell shape changes and/or cell alignment changes. […]

T1 sequence (P07550 whole entry): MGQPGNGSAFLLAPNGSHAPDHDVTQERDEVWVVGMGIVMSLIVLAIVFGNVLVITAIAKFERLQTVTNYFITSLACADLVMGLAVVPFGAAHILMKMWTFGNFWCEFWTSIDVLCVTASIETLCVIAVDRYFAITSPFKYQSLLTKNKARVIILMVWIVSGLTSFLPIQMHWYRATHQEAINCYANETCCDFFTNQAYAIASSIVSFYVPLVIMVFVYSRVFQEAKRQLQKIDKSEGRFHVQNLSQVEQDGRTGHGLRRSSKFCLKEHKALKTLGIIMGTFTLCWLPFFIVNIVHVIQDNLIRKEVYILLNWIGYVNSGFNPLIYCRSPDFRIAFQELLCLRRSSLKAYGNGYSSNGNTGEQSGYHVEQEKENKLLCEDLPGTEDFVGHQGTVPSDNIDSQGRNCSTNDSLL

COc1ccc(OC)c(C(O)C(C)NC(C)(C)C)c1 (centres unmarked) [butoxamine]
cell morphology, antagonism of salbutamol effect ([1]; 10 nM butoxamine together with salbutamol): indistinguishable from control cells
effect of treatment on cell morphology (cell shape and alignment) ([1]; compound alone (salbutamol 1 nM), photomicroscopy, Figure 4): no detectable change in cell shape or alignment

C[N+](C)(C)CCOC(N)=O [carbachol]
viability of untransfected CHO cells (MTT) [2]: little effect

CN1CCN(CC(=O)N2c3ccccc3C(=O)Nc3cccnc32)CC1 [pirenzepine]
viability of untransfected CHO cells (MTT) [2]: little effect

CC(C)(C)NCC(O)c1ccc(O)c(CO)c1 (centres unmarked) [salbutamol]
change in cell shape or alignment on untransfected CHO cells [3]: no detectable change in cell shape or alignment
